# Structures can show the parent of a compound that is named as a salt.
# Biological target: T1, p38alpha (Homo sapiens, UniProt Q16539)
# T1 construct: purchased Invitrogen PV3304
# Test: P38Alpha enzyme inhibition assay (Alphascreen kinase activity assay)
# Format: biochemical
# Conditions: 100 pM p38alpha, 250 μM ATP, 2 hours pre-incubation at 25° C., read-out: p38α inhibition (IC50 values)
# Experimental: P38Alpha Enzyme Inhibition Assay.
# The inhibitory activity of compounds was determined using an Alphascreen® (Perkin Elmer) based kinase activity assay. Kinase reactions consisted of 25 mM HEPES pH 7.5, 10 mM MgCl2, 100 μM Na3VO4, 2 mM DTT, 0.05 mg/ml Tween 20, 100 pM p38alpha (Invitrogen, PV3304), 1% DMSO and 0.3 μg/ml ATF-2 fusion protein (New England Biolabs, 9224). Compounds were incubated under these conditions for 2 hours, at 25° C., prior to the initiation of the kinase activity by the addition of the 250 μM ATP. Reaction volumes were 20 uL. After 1 hr at 25° C. reactions were stopped by the adding 10 uL of 25 mM HEPES pH 7.5 containing 62.5 mM EDTA, 0.05% Triton X-100, 10% BSA and 0.83 ng/uL anti-phospho-ATF2 antibody (Abeam, ab28812). Detection was performed by measuring luminescence following the addition of Alphascreen Donor beads (Perkin Elmer 6765300) and Protein A Alphascreen Acceptor beads (Perkin Elmer 6760137), both at a final concentration of 20 ug/ml. IC50 values were determined from concentration-response curves.
# T1 sequence (Q16539 whole entry): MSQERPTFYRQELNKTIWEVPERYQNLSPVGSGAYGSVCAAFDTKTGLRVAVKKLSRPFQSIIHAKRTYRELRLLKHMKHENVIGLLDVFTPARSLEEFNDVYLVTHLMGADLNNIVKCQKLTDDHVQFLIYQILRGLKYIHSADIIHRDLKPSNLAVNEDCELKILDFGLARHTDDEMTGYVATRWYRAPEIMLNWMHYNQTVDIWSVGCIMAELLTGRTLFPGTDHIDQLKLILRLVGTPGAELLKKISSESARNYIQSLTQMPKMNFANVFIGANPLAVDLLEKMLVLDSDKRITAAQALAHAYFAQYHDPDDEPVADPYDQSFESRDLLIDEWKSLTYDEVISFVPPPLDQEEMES
row,IC50 [nM],SMILES
1,< 10,"C[C@@H]1CCC[C@H](C)N1c1nnc2ccc(O[C@@H]3CC[C@H](NC(=O)Nc4cc(C(C)(C)C)nn4-c4cccc(CN5CCCC5)c4)c4ccccc43)cn12 [Example 144, 1-[5-tert-Butyl-2-(3-pyrrolidin-1-ylmethyl-phenyl)-2H-pyrazol-3-yl]-3-{(1S,4R)-4-[3-((2S,6R)-2,6-dimethyl-piperidin-1-yl)-[1,2,4]triazolo[4,3-a]pyridin-6-yloxy]-1,2,3,4-tetrahydro-naphthalen-1-yl}-urea formate salt]"
2,< 10,"C[C@H]1CCCCN1c1nnc2ccc(O[C@@H]3CC[C@H](NC(=O)Nc4cc(C(C)(C)C)nn4-c4cccc(OCCN5CCCC5)c4)c4ccccc43)cn12 [Example 154, 1-{5-tert-Butyl-2-[3-(2-pyrrolidin-1-yl-ethoxy)-phenyl]-2H-pyrazol-3-yl}-3-{(1S,4R)-4-[3-((S)-2-methyl-piperidin-1-yl)-[1,2,4]triazolo[4,3-a]pyridin-6-yloxy]-1,2,3,4-tetrahydro-naphthalen-1-yl}-urea formate salt]"
3,< 10,"C[C@H]1CCCCN1c1nnc2ccc(O[C@@H]3CC[C@H](NC(=O)Nc4cc(C(C)(C)C)nn4-c4cccc(OCCN5CCOCC5)c4)c4ccccc43)cn12 [Example 156, 1-{5-tert-Butyl-2-[3-(2-morpholin-4-yl-ethoxy)-phenyl]-2H-pyrazol-3-yl}-3-{(1S,4R)-4-[3-((S)-2-methyl-piperidin-1-yl)-[1,2,4]triazolo[4,3-a]pyridin-6-yloxy]-1,2,3,4-tetrahydro-naphthalen-1-yl}-urea partial formate salt]"
4,< 10,"C[C@H]1CCCCN1c1nnc2ccc(O[C@@H]3CC[C@H](NC(=O)Nc4cc(C(C)(C)C)nn4-c4cccc(OCCN5CCCCC5)c4)c4ccccc43)cn12 [Example 157, 1-{5-tert-Butyl-2-[3-(2-piperidin-1-yl-ethoxy)-phenyl]-2H-pyrazol-3-yl}-3-{(1S,4R)-4-[3-((S)-2-methyl-piperidin-1-yl)-[1,2,4]triazolo[4,3-a]pyridin-6-yloxy]-1,2,3,4-tetrahydro-naphthalen-1-yl}-urea formate salt]"
5,< 10,"C[C@H]1CCCCN1c1nnc2ccc(O[C@@H]3CC[C@H](NC(=O)Nc4cc(C(C)(C)C)nn4-c4cccc(OCCN5CCC(F)CC5)c4)c4ccccc43)cn12 [Example 159, 1-{5-tert-Butyl-2-{3-[2-(4-fluoropiperidin-1-yl)-ethoxy]-phenyl}-2H-pyrazol-3-yl}-3-{(1S,4R)-4-[3-((S)-2-methyl-piperidin-1-yl)-[1,2,4]triazolo[4,3-a]pyridin-6-yloxy]-1,2,3,4-tetrahydro-naphthalen-1-yl}-urea formate salt]"
6,< 10,"C[C@H]1CCCCN1c1nnc2ccc(O[C@@H]3CC[C@H](NC(=O)Nc4cc(C(C)(C)C)nn4-c4cccc(OCCN5CCCN(C)CC5)c4)c4ccccc43)cn12 [Example 160, 1-(5-tert-Butyl-2-{3-[2-(4-methyl-[1,4]-diazepan-1-yl)-ethoxy]-phenyl}-2H-pyrazol-3-yl)-3-{(1S,4R)-4-[3-((S)-2-methyl-piperidin-1-yl)-[1,2,4]triazolo[4,3-a]pyridin-6-yloxy]-1,2,3,4-tetrahydro-naphthalen-1-yl}-urea formate salt]"
7,< 10,"COC1CCN(CCOc2cccc(-n3nc(C(C)(C)C)cc3NC(=O)N[C@H]3CC[C@@H](Oc4ccc5nnc(N6CCCC[C@@H]6C)n5c4)c4ccccc43)c2)CC1 [Example 165, 1-(5-tert-Butyl-2-{3-[2-(4-methoxy-piperidin-1-yl-ethoxy]-phenyl}-2H-pyrazol-3-yl)-3-{(1S,4R)-4-[3-((S)-2-methyl-piperidin-1-yl)-[1,2,4]triazolo[4,3-a]pyridin-6-yloxy]-1,2,3,4-tetrahydro-naphthalen-1-yl}-urea formate salt]"
8,< 10,"C[C@H]1CCCCN1c1nnc2ccc(O[C@@H]3CC[C@H](NC(=O)Nc4cc(C(C)(C)C)nn4-c4cccc(OCCN5C6CCC5COC6)c4)c4ccccc43)cn12 [Example 166, 1-(5-tert-Butyl-2-{3-[2-(3-oxa-8-aza-bicyclo[3.2.1]oct-8-yl)-ethoxy]-phenyl}-2H-pyrazol-3-yl)-3-{(1S,4R)-4-[3-((S)-2-methyl-piperidin-1-yl)-[1,2,4]triazolo[4,3-a]pyridin-6-yloxy]-1,2,3,4-tetrahydro-naphthalen-1-yl}-urea formate salt]"

# The remaining lines, values behind:
row,SMILES,IC50 [nM]
1,"CN(C)CCOc1cccc(-n2nc(C(C)(C)C)cc2NC(=O)N[C@H]2CC[C@@H](Oc3ccc4nnc(N5CCCCC56CC6)n4c3)c3ccccc32)c1 [Example 148, 1-{(1S,4R)-4-[3-(4-Aza-spiro[2.5]oct-4-yl)-[1,2,4]triazolo[4,3-a]pyridin-6-yloxy]-1,2,3,4-tetrahydro-naphthalen-1-yl}-3-{5-tert-butyl-2-[3-(2-dimethylamino-ethoxy)-phenyl]-2H-pyrazol-3-yl}-urea formate salt]",< 10
2,"CCN(CC)CCOc1cccc(-n2nc(C(C)(C)C)cc2NC(=O)N[C@H]2CC[C@@H](Oc3ccc4nnc(N5CCCC[C@@H]5C)n4c3)c3ccccc32)c1 [Example 155, 1-{5-tert-Butyl-2-[3-(2-diethylamino-ethoxy)-phenyl]-2H-pyrazol-3-yl}-3-{(1S,4R)-4-[3-((S)-2-methyl-piperidin-1-yl)-[1,2,4]triazolo[4,3-a]pyridin-6-yloxy]-1,2,3,4-tetrahydro-naphthalen-1-yl}-urea formate salt]",< 10
3,"C[C@H]1CCCCN1c1nnc2ccc(O[C@@H]3CC[C@H](NC(=O)Nc4cc(C(C)(C)C)nn4-c4cccc(OCCN5CCN(C)CC5)c4)c4ccccc43)cn12 [Example 158, 1-(5-tert-Butyl-2-{3-[2-(4-methyl-piperazin-1-yl)-ethoxy]-phenyl}-2H-pyrazol-3-yl)-3-{(1S,4R)-4-[3-((S)-2-methyl-piperidin-1-yl)-[1,2,4]triazolo[4,3-a]pyridin-6-yloxy]-1,2,3,4-tetrahydro-naphthalen-1-yl}-urea formate salt]",< 10
4,"C[C@H]1CCCCN1c1nnc2ccc(O[C@@H]3CC[C@H](NC(=O)Nc4cc(C(C)(C)C)nn4-c4cccc(OCCN5C6CCCC5CC6)c4)c4ccccc43)cn12 [Example 162, 1-(2-{3-[2-(8-Aza-bicyclo[3.2.1]oct-8-yl)-ethoxy]-phenyl}-5-tert-butyl-2H-pyrazol-3-yl)-3-{(1S,4R)-4-[3-((S)-2-methyl-piperidin-1-yl)-[1,2,4]triazolo[4,3-a]pyridin-6-yloxy]-1,2,3,4-tetrahydro-naphthalen-1-yl}-urea formate salt]",< 10
5,"CCN(C)CCOc1cccc(-n2nc(C(C)(C)C)cc2NC(=O)N[C@H]2CC[C@@H](Oc3ccc4nnc(N5CCCC[C@@H]5C)n4c3)c3ccccc32)c1 [Example 163, 1-(5-tert-Butyl-2-{3-[2-(ethyl-methyl-amino)-ethoxy]-phenyl}-2H-pyrazol-3-yl)-3-{(1S,4R)-4-[3-((S)-2-methyl-piperidin-1-yl)-[1,2,4]triazolo[4,3-a]pyridin-6-yloxy]-1,2,3,4-tetrahydro-naphthalen-1-yl}-urea formate salt]",< 10
6,"COC1CCN(Cc2cccc(-n3nc(C(C)(C)C)cc3NC(=O)N[C@H]3CC[C@@H](Oc4ccc5nnc(N6CCCC[C@@H]6C)n5c4)c4ccccc43)c2)CC1 [Example 167, 1-{5-tert-Butyl-2-[3-(4-methoxy-piperidin-1-ylmethyl)-phenyl]-2H-pyrazol-3-yl}-3-{(1S,4R)-4-[3-((S)-2-methyl-piperidin-1-yl)-[1,2,4]triazolo[4,3-a]pyridin-6-yloxy]-1,2,3,4-tetrahydro-naphthalen-1-yl}-urea formate salt]",< 10
